Legend:
senescent IMR90 cells = assay: CellTiter-Glo cell viability assay, senescent IMR90; type: cell-based, human
Description: (§1) To determine whether ABT-263 is selectively toxic to senescent cells compared to non-senescent cells, a cell viability assay was used to assess cell survival following treatment with ABT-263. IMR90 cells (human primary lung fibroblasts (IMR90) (IMR-90 (ATCC® CCL-186™, Manassas, Virginia) were seeded in six well plates, and cells were induced to senescence with 10 Gy of ionizing radiation (IR) (Day 0). The media was refreshed every 3 days. The senescent phenotype is allowed to develop for 7 days at which point a cell count was made to determine the baseline number of cells followed by seeding into 96-well plates. On day 8, the senescent cells (irradiated) and the non-senescent cells (the non-radiated cells), were exposed to serial dilutions of ABT-263 for a period of 3 days. ABT-263 concentrations ranged from 0.5 nM to 3 μM. Each condition was seeded in triplicate.
(§2) After three days of treatment (Day 11), cells were assayed for cell survival using the commercially available CellTiter-Glo® (CTG) Luminescent Cell Viability Assay (Promega Corporation, Madison, Wisconsin). The assay determines the number of viable cells in culture based on the quantitation of ATP present which is an indicator of metabolically active cells.
The experiments performed for assessing the effect of these other Bcl-2 inhibitors were performed essentially as described in Example 7. Cells were exposed to ABT-199 at serial dilution concentrations ranging from 15 nM to 100 μM (FIGS. 26 and 27). Cells were exposed to Obatoclax at concentrations ranging from 1.4 nM to 9 μM (FIG. 28).
IMR90 cells were induced to senescence by irradiation as described in Example 7. The irradiated IMR90 cells and non-senescent IMR90 cells were then exposed to a compound called ML214 that is a Bcl-2A1 specific inhibitor.
The effect of ABT-263 in combination with the Akt inhibitor MK-2206 was tested for selective toxicity of senescent cells compared to non-senescent cells in IMR90 cells. The methods of Example 7 were repeated except that cell cultures were exposed to 10 nM MK-2206 (Selleckem, Cat #S1078) in addition to serial dilutions of ABT-263.

[1] = test system: INK-ATTAC transgenic mice; assay: Cardiac stress test (isoproterenol) in aged INK-ATTAC transgenic mice; type: in vivo, mouse
Description: To study the impact of senescent cell clearance on health and lifespan, cohorts of INK-ATTAC transgenic mice on FVB×129Sv/E×C57BL/6 mixed or C57BL/6 pure genetic backgrounds were established. At 12 months age, one half of each cohort was injected three times/week with AP20187 to induce apoptosis of p16-positive senescent cells (0.2 mg/kg and 2 mg/kg AP20187 for the mixed and the pure C57BL/6 cohorts, respectively), while the other half of each cohort received vehicle. At 18 months, subsets of male and female mice from each cohort were subjected to a cardiac stress test, in which mice were injected with a lethal dose of isoproterenol (680 mg/kg) and the time to cardiac arrest was recorded.
Cardio-protective signaling pathways are known to provide tolerance to metabolic stresses such as ischemia and hypoxia decline (Granfeldt et al., 2009, Cardiovasc. Res. 83:234-246). However, cardio-protective signaling deteriorates with aging, thus decreasing the functional and adaptive reserve capacity of the heart (Ogawa et al., 1992, Circulation 86:494-503; Wiebe et al., 1998, Clin. J. Sport Med. 8:272-279). ATP-dependent K channels (KATP) play a central role in cardio-protective signaling (Gross and Auchampach, 1992, Cardiovasc. Res. 26:1011-1016). These KATP channels are composed of the pore-forming subunit Kir6.2/Kir6.1, the regulatory subunit Sur2a, and additional accessory proteins. KATP channels are thought to decline with aging due to decreased expression of Sur2a (Du et al., 2006, FASEB J. 20:1131-1141; Jovanovic and Jovanovic, 2009, Curr. Opin. Pharmacol. 9:189-193; Ranki et al., 2002, Mech. Ageing Dev. 123:695-705). […] Thus, the contribution of senescent cells to the age-related decline in Sur2a expression was examined in 18 month old AP20187-treated and vehicle treated mice from subjected to the cardiac stress test previously described. […] Taken together, these experiments indicate that the presence of senescent cells with aging negatively impacts KATP channel function, and senescent cell clearance is an effective therapy to counteract this deterioration.

[2] = test system: 3MR or INK-ATTAC mice exposed to cigarette smoke; assay: Chronic cigarette smoke exposure model (COPD); type: in vivo, mouse; settings: after 2 months of cigarette smoke exposure; vs untreated controls
Description: In a second animal model for pulmonary diseases (e.g., COPD), mice were exposed to cigarette smoke. The effect of a senolytic agent on the mice exposed to smoke is assessed by senescent cell clearance, lung function, and histopathology.
Six week-old 3MR (n=35) or INK-ATTAC (n=35) mice were chronically exposed to cigarette smoke generated from a Teague TE-10 system, an automatically-controlled cigarette smoking machine that produces a combination of side-stream and mainstream cigarette smoke in a chamber, which is transported to a collecting and mixing chamber where varying amounts of air is mixed with the smoke mixture. The COPD protocol was adapted from the COPD core facility at Johns Hopkins University (at Internet site web.jhu.edu/Biswal/exposure_core/copd.html#Cigarette_Smoke) (Rangasamy et al., 2004, J. Clin. Invest. 114:1248-1259; Yao et al., 2012, J. Clin. Invest. 122:2032-2045). Mice received a total of 6 hours of cigarette smoke exposure per day, 5 days a week for 6 months. Each lighted cigarette (3R4F research cigarettes containing 10.9 mg of total particulate matter (TPM), 9.4 mg of tar, and 0.726 mg of nicotine, and 11.9 mg carbon monoxide per cigarette [University of Kentucky, Lexington, KY]) was puffed for 2 seconds and once every minute for a total of 8 puffs, with the flow rate of 1.05 L/min, to provide a standard puff of 35 cm^3. The smoke machine was adjusted to produce a mixture of side stream smoke (89%) and mainstream smoke (11%) by smoldering 2 cigarettes at one time. The smoke chamber atmosphere was monitored for total suspended particulates (80-120 mg/m^3) and carbon monoxide (350 ppm). Beginning at day 7, (10) INK-ATTAC and (10) 3MR mice were treated with AP20187 (3× per week) or gancyclovir (5 consecutive days of treatment followed by 16 days off drug, repeated until the end of the experiment), respectively. An equal number of mice received the corresponding vehicle. The remaining […] (15 INK-ATTAC and 15 3MR) were evenly split with 5 of each genetically modified strain placed into three different treatment groups. One group (n=10) received Nutlin-3A (25 mg/kg dissolved in 10% DMSO/3% Tween-20 in PBS, treated 14 days consecutively followed by 14 days off drug, repeated until the end of the experiment). […]
After two months of cigarette smoke exposure, lung function was assessed by monitoring oxygen saturation using the MouseSTAT PhysioSuite pulse oximeter (Kent Scientific). […] Mice were monitored for 30 seconds and the average peripheral capillary oxygen saturation (SpO2) measurement over this duration was calculated.

[3] = test system: non-senescent IMR90 cells; assay: CellTiter-Glo cell viability assay, non-senescent IMR90; type: cell-based; settings: Homo sapiens, IMR-90, 72 h; non-senescent IMR90, 3 days
Description: as §1, §2
The experiments performed for assessing the effect of these other Bcl-2 inhibitors were performed essentially as described in Example 7. […]

p16-3MR animals = assay: Senescence induced by chemotherapeutic drugs in p16-3MR animals (luminescence); type: in vivo, mouse; settings: p<0.05; pomalidomide 5 mg/kg, lenalidomide 50 mg/kg 7 daily injections; doxorubicin 10 mg/kg 2-4 injections
Description: To examine senescence induced by different chemotherapeutic drugs, groups of p16-3MR animals (n=4) were treated with thalidomide (100 mg/kg; 7 daily injections); romidepsin (1 mg/kg; 3 injections); pomalidomide (5 mg/kg; 7 daily injections); lenalidomide (50 mg/kg; 7 daily injections); 5-azacytidine (5 mg/kg; 3 injections) and compared with doxorubicin (10 mg/kg, 2-4 injections over 7 days).

[4] = test system: myocardial damage in patients; settings: drug product inserts; cited from earlier work
p16-3MR transgenic mice = assay: Paclitaxel-induced senescence in p16-3MR mice; type: in vivo, mouse; settings: 20 mg/kg three times every two days
Description: Paclitaxel induces senescence and SASP in p16-3MR transgenic mice. Groups of mice (n=4) were treated three times every two days with 20 mg/kg paclitaxel or vehicle. […] The level of mRNA in skin was determined for each of the target genes: p16, 3MR transgene, and IL-6.

Compound: CC1(C)CCC(CN2CCN(c3ccc(C(=O)NS(=O)(=O)c4ccc(NCC5CCOCC5)c([N+](=O)[O-])c4)c(Oc4cnc5[nH]ccc5c4)c3)CC2)=C(c2ccc(Cl)cc2)C1 [ABT-199]
- Selective targeting (killing) of senescent cells over non-senescent cells (senescent IMR90 cells; IMR90): inability

Compound: CC[C@H](C(=O)N1CCCC[C@H]1C(=O)O[C@H](CCc1ccc(OC)c(OC)c1)c1cccc(OCC(=O)NCC(CNC(=O)COc2cccc([C@@H](CCc3ccc(OC)c(OC)c3)OC(=O)[C@@H]3CCCCN3C(=O)[C@@H](CC)c3cc(OC)c(OC)c(OC)c3)c2)CN(C)C)c1)c1cc(OC)c(OC)c(OC)c1 [AP20187]
- Time to cardiac arrest after lethal isoproterenol ([1]; 0.2 or 2 mg/kg three times/week from 12 to 18 months, isoproterenol 680 mg/kg): sustained youthful cardio-protection
- Sur2a expression ([1]; 18-month-old female mice): sustained Sur2a expression
- Median lifespan ([1]; INK-ATTAC mice): median lifespan extension
- SpO2 levels [2]: statistically significant increases

Compound: COC1=CC(c2cc3ccccc3[nH]2)=N/C1=C\c1[nH]c(C)cc1C [Obatoclax]
- IC50 [3]: 75 nM
- IC50 (senescent IMR90 cells; Homo sapiens, IMR-90, 72 h, senescent IMR90, 3 days): 125 nM

Compound: COc1cccc2c1C(=O)c1c(O)c3c(c(O)c1C2=O)C[C@@](O)(C(=O)CO)C[C@@H]3O[C@H]1C[C@H](N)[C@H](O)[C@H](C)O1 [doxorubicin]
- Level of senescent cells (luminescence) (p16-3MR animals): significant levels of senescent cells
- Total lifetime dose above which myocardial damage may lead to congestive heart failure [4]: exceeds 550 mg/m^2

Compound: Nc1cccc2c1CN(C1CCC(=O)NC1=O)C2=O (stereo not drawn) [lenalidomide]
- Level of senescent cells (luminescence) (p16-3MR animals): significant levels of senescent cells

Compound: Nc1cccc2c1C(=O)N(C1CCC(=O)NC1=O)C2=O (stereo not drawn) [omalidomide]
- Level of senescent cells (luminescence) (p16-3MR animals): significant levels of senescent cells

Compound: CC(=O)O[C@H]1C(=O)[C@@]2(C)[C@H]([C@H](OC(=O)c3ccccc3)[C@]3(O)C[C@H](OC(=O)[C@H](O)[C@@H](NC(=O)c4ccccc4)c4ccccc4)C(C)=C1C3(C)C)[C@]1(OC(C)=O)CO[C@@H]1C[C@@H]2O [paclitaxel]
- Senescence shown by luminescence (p16-3MR transgenic mice): Senescence was observed
- 3MR transgene mRNA in skin (p16-3MR transgenic mice; vs vehicle): increased
- IL-6 mRNA in skin (p16-3MR transgenic mice; vs vehicle): increased
- p16 mRNA in skin (p16-3MR transgenic mice; vs vehicle): increased

— patent publication US11980616B2, “Treating liver disease by selectively eliminating senescent cells” (Buck Institute for Research on Aging, priority 2014, dated 2024)
